Measurements taken from patent publication US20250382296A1, “NITROGEN-CONTAINING FUSED THREE RING PRMT5 INHIBITOR, AND PREPARATION METHOD THEREFOR AND PHARMACEUTICAL USE THEREOF” (Abbisko Therapeutics Co., Ltd., priority 2022, published 2025).

Legend:
[1] = test system: HCT 116 wild-type MTAP cells; experiment: Inhibition of proliferation of HCT116 wild-type MTAP cells (CellTiter-Glo, 6 days); assay type: cell-based; details: Homo sapiens, HCT-116, 144 h
Description: (§1) 1. HCT 116 MTAP-knockout cells and HCT 116 wild-type MTAP cells were plated in 96-well flat-bottom plates and cultured overnight at 37° C. and […] in McCoy's 5A medium containing 10% fetal bovine serum+1% penicillin-streptomycin.
(§2) 2. The next day, compounds were each dissolved in DMSO, diluted successively with DMSO and medium and then transferred to cell plates; the final concentration of each compound was 10 μM, 4-fold dilution was performed to obtain 9 concentration points, and a DMSO control was provided.
(§3) 3. Cells not treated with compound were subjected to CellTiter-Glo Luminescent Cell Viability Assay (Promega) to detect the cell viability, and reference was made to the kit instructions for the operation; the plates were then placed on an EnVision Multilabel Reader to detect luminescence signals.
(§4) 4. Meanwhile, the cell plates containing cells treated with compounds were cultured continuously at 37° C. and […] CO2 for 6 days.
(§5) 5. Then, the cell viability was also detected by CellTiter-Glo.
(§6) 6. Finally, dose response curves were plotted using the four parameter dose response curve module of GraphPad Prism v 9.2.0 software and proliferation inhibition IC50 (unit: nM) was calculated.

[2] = test system: HCT 116 MTAP-knockout cells; experiment: Inhibition of proliferation of HCT116 MTAP-knockout cells (CellTiter-Glo, 6 days); assay type: cell-based, human; details: for IC50: Homo sapiens, HCT-116, 144 h, proliferation inhibition, HCT116 MTAP-knockout, 6 days, CellTiter-Glo; for Selectivity: IC50 HCT116 wild-type cells / IC50 HCT116 MTAP-knockout cells
Description: as §1, §2, §3, §4, §5, §6

Compound	IC50 [1] [µM]	IC50 [2] [µM]	Selectivity [2]
Cc1cc2nc(N)c3cncn3c2cc1C(=O)N(c1cnn(C)c1)[C@@H]1COc2cc(C(F)(F)F)ccc21 [Example 207a, (S)-4-amino-7-methyl-N-(1-methyl-1H-pyrazol-4-yl)-N-(6-(trifluoromethyl)-2,3-dihydrobenzofuran-3-yl)imidazo[1,5-a]quinoxaline-8-carboxamide]	0.07	0.002	35
CCn1cc(N(C(=O)c2ccc3nc(N)c4cncn4c3c2)[C@@H]2COc3cc(C(F)(F)F)ccc32)cn1 [Example 208a, (S)-4-amino-N-(1-ethyl-1H-pyrazol-4-yl)-N-(6-(trifluoromethyl)-2,3-dihydrobenzofuran-3-yl)imidazo[1,5-a]quinoxaline-8-carboxamide]	0.523	0.005	104.6
Cn1cc(N(C(=O)c2cc3c(cc2Cl)nc(N)c2cncn23)[C@@H]2COc3cc(C(F)(F)F)ccc32)cn1 [Example 210a, (S)-4-amino-7-chloro-N-(1-methyl-1H-pyrazol-4-yl)-N-(6-(trifluoromethyl)-2,3-dihydrobenzofuran-3-yl)imidazo[1,5-a]quinoxaline-8-carboxamide]	0.059	0.001	59
Cn1cc(N(C(=O)c2cc3c(cc2Cl)nc(N)c2cncn23)[C@@H]2COc3nc(C(F)(F)F)ccc32)cn1 [Example 211a, (S)-4-amino-7-chloro-N-(1-methyl-1H-pyrazol-4-yl)-N-(6-(trifluoromethyl)-2,3-dihydrofuro[2,3-b]pyridin-3-yl)imidazo[1,5-a]quinoxaline-8-carboxamide]	1.33	0.019	69.9
Nc1nc2cc(Cl)c(C(=O)N(Cc3ccc(C(F)(F)F)nn3)CC3CC3)cc2n2cncc12 [Example 212, 4-amino-7-chloro-N-(cyclopropylmethyl)-N-((6-(trifluoromethyl)pyridazin-3-yl)methyl)imidazo[1,5-a]quinoxaline-8-carboxamide]	0.383	0.008	47.9
Cc1cc2nc(N)c3cncn3c2cc1C(=O)N(Cc1ccc(C(F)(F)F)nn1)CC1CC1 [Example 213, 4-amino-N-(cyclopropylmethyl)-7-methyl-N-((6-(trifluoromethyl)pyridazin-3-yl)methyl)imidazo[1,5-a]quinoxaline-8-carboxamide]	1.32	0.015	87.9
CN(C(=O)c1ccc2nc(N)c3cncn3c2c1)C1COc2cc(-c3cnn(C)c3)ccc21 (stereo not drawn) [Example 214, 4-amino-N-methyl-N-(6-(1-methyl-1H-pyrazol-4-yl)-2,3-dihydrobenzofuran-3-yl)imidazo[1,5-a]quinoxaline-8-carboxamide]	> 10	0.188	>53.1
Nc1nc2cc(F)c(C(=O)N(Cc3ccc(C(F)(F)F)nn3)CC3CC3)cc2n2cncc12 [Example 215, 4-amino-N-(cyclopropylmethyl)-7-fluoro-N-((6-(trifluoromethyl)pyridazin-3-yl)methyl)imidazo[1,5-a]quinoxaline-8-carboxamide]	0.314	0.008	39.3
Nc1nc2ccc(C(=O)N(c3cn[nH]c3)[C@@H]3COc4cc(C(F)(F)F)ccc43)cc2n2cncc12 [Example 216, (S)-4-amino-N-(1H-pyrazol-4-yl)-N-(6-(trifluoromethyl)-2,3-dihydrobenzofuran-3-yl)imidazo[1,5-a]quinoxaline-8-carboxamide]	1.08	0.011	98.3
C[Si](C)(C)CCOCn1cc(N(C(=O)c2ccc3nc(N)c4cncn4c3c2)[C@@H]2COc3cc(C(F)(F)F)ccc32)cn1 [Example 217, (S)-4-amino-N-(6-(trifluoromethyl)-2,3-dihydrobenzofuran-3-yl)-N-(1-((2-(trimethylsilyl)ethoxy)methyl)-1H-pyrazol-4-yl)imidazo[1,5-a]quinoxaline-8-carboxamide]	0.546	0.041	13.3
Cn1cc(N(C(=O)c2cc3c(cc2F)nc(N)c2cncn23)[C@@H]2COc3cc(C(F)(F)F)ccc32)cn1 [Example 218, (S)-4-amino-7-fluoro-N-(1-methyl-1H-pyrazol-4-yl)-N-(6-(trifluoromethyl)-2,3-dihydrobenzofuran-3-yl)imidazo[1,5-a]quinoxaline-8-carboxamide]	0.047	0.002	23.5
Cn1cc(N(C(=O)c2cc3c(cc2F)nc(N)c2cncn23)[C@@H]2COc3nc(C(F)(F)F)ccc32)cn1 [Example 219, (S)-4-amino-7-fluoro-N-(1-methyl-1H-pyrazol-4-yl)-N-(6-(trifluoromethyl)-2,3-dihydrofuro[2,3-b]pyridin-3-yl)imidazo[1,5-a]quinoxaline-8-carboxamide]	0.257	0.003	85.7
C[C@@H]1CCN(C(=O)c2ccc3nc(N)c4cncn4c3c2)[C@@H](c2ccc3scnc3c2)C1 [Example 225, (4-aminoimidazo[1,5-a]quinoxalin-8-yl)((2R,4R)-2-(benzo[d]thiazol-5-yl)-4-methylpiperidin-1-yl)methanone]	> 10	0.499	>20
Cc1cc2nc(N)c3cncn3c2cc1C(=O)N1CC[C@@H](C)C[C@@H]1c1ccc2scnc2c1 [Example 226, (4-amino-7-methylimidazo[1,5-a]quinoxalin-8-yl)((2R,4R)-2-(benzo[d]thiazol-5-yl)-4-methylpiperidin-1-yl)methanone]	> 10	0.322	>31
C[C@H]1CC[C@H](c2ccc3scnc3c2)N(C(=O)c2ccc3nc(N)c4cncn4c3c2)C1 [Example 227, (4-aminoimidazo[1,5-a]quinoxalin-8-yl)((2R,5S)-2-(benzo[d]thiazol-5-yl)-5-methylpiperidin-1-yl)methanone]	3.45	0.012	283
Cc1cc2nc(N)c3cncn3c2cc1C(=O)N1C[C@@H](C)CC[C@@H]1c1ccc2scnc2c1 [Example 228, (4-amino-7-methylimidazo[1,5-a]quinoxalin-8-yl)((2R,5S)-2-(benzo[d]thiazol-5-yl)-5-methylpiperidin-1-yl)methanone]	5.32	0.102	52.1
Cc1ncc2c(N)nc3ccc(C(=O)N(c4cnn(C)c4)[C@@H]4COc5cc(C(F)(F)F)ccc54)cc3n12 [Example 229, (S)-4-amino-1-methyl-N-(1-methyl-1H-pyrazol-4-yl)-N-(6-(trifluoromethyl)-2,3-dihydrobenzofuran-3-yl)imidazo[1,5-a]quinoxaline-8-carboxamide]	0.934	0.016	58.4
Cc1cc2nc(N)c3cncn3c2cc1C(=O)N(C)Cc1ccc(C(F)(F)F)cn1 [Example 230, 4-amino-N,7-dimethyl-N-((5-(trifluoromethyl)pyridin-2-yl)methyl)imidazo[1,5-a]quinoxaline-8-carboxamide]	7.57	0.108	70.1
Cc1cc2nc(N)c3cnc(C)n3c2cc1C(=O)N(C)Cc1ccc(C(F)(F)F)cn1 [Example 231, 4-amino-N,1,7-trimethyl-N-((5-(trifluoromethyl)pyridin-2-yl)methyl)imidazo[1,5-a]quinoxaline-8-carboxamide]	> 10	0.174	>57.5
Cn1cc(N(C(=O)c2cc3c(cc2F)nc(N)c2cccn23)[C@@H]2COc3cc(C(F)(F)F)ccc32)cn1 [Example 233, (S)-4-amino-7-fluoro-N-(1-methyl-1H-pyrazol-4-yl)-N-(6-(trifluoromethyl)-2,3-dihydrobenzofuran-3-yl)pyrrolo[1,2-a]quinoxaline-8-carboxamide]	0.564	0.017	33.2
